pIC50: −log10 of the molar value.
Experiments:
[1] = Ability to block capsaicin-induced calcium influx in rat-human chimera TRPV1 expressing CHO cells; type: cell-based
[2] = Ability to block acid-induced calcium influx in rat-human chimera TRPV1 expressing CHO cells; type: cell-based

Compound	pIC50 [1]	pIC50 [2]
CCc1ccc(NC(=O)c2csc(Cc3c(Cl)cccc3Cl)n2)cc1	6.09	5.84
O=C(Nc1ccc(C(F)(F)F)nc1)c1csc(Cc2c(Cl)cccc2Cl)n1	6.96	6.89
O=C(Nc1ccc(C(F)(F)F)cc1)c1c[nH]c(Cc2c(Cl)cccc2Cl)n1	6.64	6.64
COc1ccc(NC(=O)c2csc(Cc3c(Cl)cccc3Cl)n2)cn1	< 5.40	< 5.40
CN(C)c1ccc(NC(=O)c2csc(Cc3c(Cl)cccc3Cl)n2)cc1	< 5.40	5.90
O=C(Nc1ccc(C(F)(F)F)cc1)c1cnc(Cc2c(Cl)cccc2Cl)s1	6.10	5.75
O=C(Nc1ccc(C(F)(F)F)cc1)c1csc(Oc2c(Cl)cccc2Cl)n1	6.06	5.89
Cc1nc(Cc2c(Cl)cccc2Cl)sc1C(=O)Nc1ccc(C(F)(F)F)cc1	–	< 5.40
N#Cc1ccc(NC(=O)c2csc(Cc3c(Cl)cccc3Cl)n2)cc1	6.35	6.14
Cc1cccc(C)c1Nc1nc(C(=O)Nc2ccc(C(F)(F)F)cc2)cs1	7.05	7.09
O=C(Nc1ccc(C(F)(F)F)cc1)c1csc(Nc2ccccc2Cl)n1	5.76	5.85
O=C(Nc1ccc(C(F)(F)F)cc1)c1csc(-c2c(Cl)cccc2Cl)n1	< 5.40	< 5.40
O=C(Nc1ccc(C(F)(F)F)cc1)c1csc(CCc2c(Cl)cccc2Cl)n1	< 5.40	< 5.40
O=C(Nc1ccccc1Br)c1csc(Cc2c(Cl)cccc2Cl)n1	< 5.40	< 5.40
O=C(Nc1ccc(C(F)(F)F)cc1)c1coc(Cc2c(Cl)cccc2Cl)n1	7.21	6.70
O=C(Nc1ccc(C(F)(F)F)cc1)c1csc(Nc2c(Cl)cccc2C(F)(F)F)n1	< 5.40	< 5.40
O=C(Nc1cccc(Br)c1)c1csc(Cc2c(Cl)cccc2Cl)n1	< 5.40	< 5.40
CC(C)c1ccc(NC(=O)c2csc(Cc3c(Cl)cccc3Cl)n2)cc1	6.43	6.28
O=C(Nc1ccc(Br)cn1)c1csc(Cc2c(Cl)cccc2Cl)n1	< 5.40	< 5.40
CC(C)(C)c1ccc(NC(=O)c2csc(Cc3c(Cl)cccc3Cl)n2)cc1	6.24	6.52
O=C(Nc1ccc(C(F)(F)C(F)(F)F)cc1)c1csc(Cc2c(Cl)cccc2Cl)n1	6.54	6.46
Cn1cc(C(=O)Nc2ccc(C(F)(F)F)cc2)nc1Cc1c(Cl)cccc1Cl	6.00	5.99
O=C(Nc1ccc(C(F)(F)F)cc1)c1csc(Nc2c(Cl)cncc2Cl)n1	6.44	6.06
O=C(Nc1ccc(Br)cc1)c1csc(Cc2c(Cl)cccc2Cl)n1	6.40	6.34
COc1ccc(NC(=O)c2csc(Cc3c(Cl)cccc3Cl)n2)cc1	< 5.40	< 5.40
O=C(Nc1ccc(C(F)(F)F)cc1)c1csc(Cc2c(Cl)cccc2Cl)n1	–	7.06
O=C(Nc1ccccc1)c1csc(Cc2c(Cl)cccc2Cl)n1	< 5.40	< 5.40
O=C(Nc1ccc(C(F)(F)F)cc1)c1csc(Nc2c(Cl)cccc2Cl)n1	7.29	7.32

From ChEMBL document CHEMBL1141866, “Synthesis and evaluation of thiazole carboxamides as vanilloid receptor 1 (TRPV1) antagonists” (Bioorg Med Chem Lett, 2005)
